Molecular target: T1, Human TRPC6 (Homo sapiens, UniProt Q9Y210)
T1 construct: expressed in transfected cells
T1 sequence (Q9Y210 1-931): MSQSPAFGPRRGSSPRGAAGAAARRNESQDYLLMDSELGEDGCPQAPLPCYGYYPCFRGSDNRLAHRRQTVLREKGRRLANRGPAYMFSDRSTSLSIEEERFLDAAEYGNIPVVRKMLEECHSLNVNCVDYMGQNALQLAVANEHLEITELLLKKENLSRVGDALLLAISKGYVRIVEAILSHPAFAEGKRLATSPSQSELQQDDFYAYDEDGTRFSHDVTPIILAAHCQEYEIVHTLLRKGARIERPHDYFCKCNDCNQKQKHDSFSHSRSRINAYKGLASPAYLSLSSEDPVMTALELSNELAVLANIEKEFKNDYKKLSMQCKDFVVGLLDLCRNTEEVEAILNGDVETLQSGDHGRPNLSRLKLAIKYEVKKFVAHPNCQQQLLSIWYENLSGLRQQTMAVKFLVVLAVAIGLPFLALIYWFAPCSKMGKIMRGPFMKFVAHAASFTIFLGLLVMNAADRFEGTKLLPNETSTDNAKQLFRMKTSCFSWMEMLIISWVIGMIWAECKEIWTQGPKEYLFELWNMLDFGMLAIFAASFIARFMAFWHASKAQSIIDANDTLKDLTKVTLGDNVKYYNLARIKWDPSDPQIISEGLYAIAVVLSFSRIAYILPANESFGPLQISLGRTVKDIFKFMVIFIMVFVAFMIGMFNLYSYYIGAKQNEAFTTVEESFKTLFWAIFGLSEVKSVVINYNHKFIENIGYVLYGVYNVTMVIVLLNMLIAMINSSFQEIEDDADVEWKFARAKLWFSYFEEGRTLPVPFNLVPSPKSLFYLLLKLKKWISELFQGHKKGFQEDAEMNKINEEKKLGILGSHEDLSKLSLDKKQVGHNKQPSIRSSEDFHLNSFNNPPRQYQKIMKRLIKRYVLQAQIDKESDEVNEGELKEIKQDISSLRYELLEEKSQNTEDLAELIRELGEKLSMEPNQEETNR
Experiment: Evaluation of TRPC6 channel inhibitory activity (1), FLIPR Calcium 5 Assay Kit, OAG stimulation (Compound Nos. 1-1293)
Assay type: cell-based
Details: Human TRPC6 stably-expressing cells, OAG 30 μM, FLIPR Calcium 5 Assay Kit; read-out: Inhibitory activity (pIC50 class) (converted)
How it was run: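 Stable human TRPC6 line; fluorescent Ca2+ dye loading, then 20 min compound exposure before 30 μM OAG trigger. Peak-minus-baseline signal converted to % inhibition against untreated and unstimulated wells; potency given as pIC50 band.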

Row | IC50 [µM] | Compound
1 | < 0.01 | Cn1nc(-c2ccccn2)cc1Oc1cc(C#N)ccc1-c1cc(CN)ccn1 [compound 642, 4-[4-(aminomethyl)pyridin-2-yl]-3-(2-methyl-5-pyridin-2-ylpyrazol-3-yl)oxybenzonitrile]
2 | 0.01 to 1 | Cc1nc(Oc2cc(C#N)ccc2-c2ccc(CCN)cn2)cc(-c2ccccc2)n1 [Compound 86, 4-[5-(2-aminoethyl)pyridin-2-yl]-3-(2-methyl-6-phenylpyrimidin-4-yl)oxybenzonitrile]
3 | < 0.01 | Cc1cc(Oc2cc(C#N)ccc2-c2ncc([C@H](O)CN)cn2)cc(N2CCCC2)n1 [compound 499, 4-[5-[(1S)-2-amino-1-hydroxyethyl]pyrimidin-2-yl]-3-(2-methyl-6-pyrrolidin-1-ylpyridin-4-yl)oxybenzonitrile]
4 | > 1 | N#Cc1ccc(-c2ncc(CN)cn2)c(C(=O)c2nnc(N3CCOCC3)s2)c1 [compound 1095, 4-[5-(aminomethyl)pyrimidin-2-yl]-3-(5-morpholin-4-yl-1,3,4-thiadiazole-2-carbonyl)benzonitrile]
5 | 0.01 to 1 | N#Cc1ccc(-c2ncc(CCN)cn2)c(Oc2nnc(N3CCOCC3)s2)c1 [compound 723, 4-[5-(2-aminoethyl)pyrimidin-2-yl]-3-[(5-morpholin-4-yl-1,3,4-thiadiazol-2-yl)oxy]benzonitrile]
6 | < 0.01 | Cn1nc(C2CC2)cc1Oc1cc(C#N)ccc1-c1ccc(C(O)CN)cc1 (centres unmarked) [Compound 215, 4-[4-(2-amino-1-hydroxyethyl)phenyl]-3-(5-cyclopropyl-2-methylpyrazol-3-yl)oxybenzonitrile]
7 | > 1 | N#Cc1ccc(-c2ncc(CN)cn2)c(Oc2nnc(N3CC(F)C3)s2)c1 [compound 721, 4-[5-(aminomethyl)pyrimidin-2-yl]-3-[[5-(3-fluoroazetidin-1-yl)-1,3,4-thiadiazol-2-yl]oxy]benzonitrile]
8 | > 1 | Cc1nc(Oc2cc(C#N)ccc2-n2ncc3c2CNCC3)cc(N2CCCCC2)n1 [compound 747, 3-(2-methyl-6-piperidin-1-ylpyrimidin-4-yl)oxy-4-(4,5,6,7-tetrahydropyrazolo[3,4-c]pyridin-1-yl)benzonitrile]
9 | < 0.01 | Cc1nc(Oc2cc(C#N)ccc2-c2ccc(CCN)cc2)cc(N2CCCC2)n1 [Compound 25, 4-[4-(2-aminoethyl)phenyl]-3-(2-methyl-6-pyrrolidin-1-ylpyrimidin-4-yl)oxybenzonitrile]
10 | 0.01 to 1 | Cc1cc(Oc2cc(C#N)ccc2-c2ncc(CCN)cn2)cc(-c2ncco2)n1 [compound 596, 4-[5-(2-aminoethyl)pyrimidin-2-yl]-3-[2-methyl-6-(1,3-oxazol-2-yl)pyridin-4-yl]oxybenzonitrile]
11 | 0.01 to 1 | COC(=O)C(N)c1ccc(-c2ccc(C#N)cc2Oc2cc(C)nc(N3CCOCC3)c2)nc1 (centres unmarked) [compound 409, methyl 2-amino-2-[6-[4-cyano-2-(2-methyl-6-morpholin-4-ylpyridin-4-yl)oxyphenyl]pyridin-3-yl]acetate]
12 | < 0.01 | Cc1nc(Sc2cc(C#N)ccc2-c2ncc(CCN)cn2)cc(N2CCCCC2)n1 [compound 1255, 4-[5-(2-aminoethyl)pyrimidin-2-yl]-3-(2-methyl-6-piperidin-1-ylpyrimidin-4-yl)sulfanylbenzonitrile]
13 | < 0.01 | Cn1nc(N2CCCCC2)cc1Oc1cc(C#N)ccc1-c1ccc(CCN)cn1 [compound 541, 4-[5-(2-aminoethyl)pyridin-2-yl]-3-(2-methyl-5-piperidin-1-ylpyrazol-3-yl)oxybenzonitrile]
14 | > 1 | N#Cc1ccc(-c2ncc(CN)cn2)c(Cn2ncc(-c3ccccc3)n2)c1 [compound 1170, 4-[5-(aminomethyl)pyrimidin-2-yl]-3-[(4-phenyltriazol-2-yl)methyl]benzonitrile]
15 | < 0.01 | Cc1nc(Sc2cc(C#N)ccc2-c2ccc(CCN)cn2)cc(N2CCCCC2)n1 [compound 1249, 4-[5-(2-aminoethyl)pyridin-2-yl]-3-(2-methyl-6-piperidin-1-ylpyrimidin-4-yl)sulfanylbenzonitrile]
16 | 0.01 to 1 | CN(C)C(=O)c1cc(Oc2cc(C#N)ccc2-c2ncc(CN)cn2)n(C)n1 [compound 956, 5-[2-[5-(aminomethyl)pyrimidin-2-yl]-5-cyanophenoxy]-N,N,1-trimethylpyrazole-3-carboxamide]

Row | IC50 [µM] | Compound
17 | 0.01 to 1 | Cc1nc(Oc2cc(C#N)ccc2-c2ncc(CN)cn2)cc(-c2ccccn2)n1 [compound 472, 4-[5-(aminomethyl)pyrimidin-2-yl]-3-(2-methyl-6-pyridin-2-ylpyrimidin-4-yl)oxybenzonitrile]
18 | 0.01 to 1 | Cc1cc(Oc2cc(C#N)ccc2-c2ccc(CN)cn2)n(C)n1 [compound 323, 4-[5-(aminomethyl)pyridin-2-yl]-3-(2,5-dimethylpyrazol-3-yl)oxybenzonitrile]
19 | < 0.01 | Cc1cc(Oc2cc(C#N)ccc2-c2ncc(CCN)cn2)cc(-c2ccccn2)n1 [compound 371, 4-[5-(2-aminoethyl)pyrimidin-2-yl]-3-(2-methyl-6-pyridin-2-ylpyridin-4-yl)oxybenzonitrile]
20 | < 0.01 | Cc1cc(Oc2cc(C#N)ccc2-c2ncc(CCN)cn2)cc(N2CCOCC2)n1 [Compound 250, 4-[5-(2-aminoethyl)pyrimidin-2-yl]-3-(2-methyl-6-morpholin-4-ylpyridin-4-yl)oxybenzonitrile]
21 | 0.01 to 1 | N#Cc1ccc(-c2ccc(CCN)cc2)c(C(=O)c2cnc(N3CCOCC3)o2)c1 [compound 1081, 4-[4-(2-aminoethyl)phenyl]-3-(2-morpholin-4-yl-1,3-oxazole-5-carbonyl)benzonitrile]
22 | < 0.01 | CC(C)c1cc(Oc2cc(F)ccc2-c2ncc(CN)cn2)n(C)n1 [compound 1012, [2-[4-fluoro-2-(2-methyl-5-propan-2-ylpyrazol-3-yl)oxyphenyl]pyrimidin-5-yl]methanamine]
23 | 0.01 to 1 | N#Cc1ccc(-c2ncc(CN)cn2)c(Oc2cnnc(N3CCOCC3)c2)c1 [compound 534, 4-[5-(aminomethyl)pyrimidin-2-yl]-3-(6-morpholin-4-ylpyridazin-4-yl)oxybenzonitrile]
24 | 0.01 to 1 | Cc1nc(Oc2cc(C#N)ccc2-c2ncc(CN)cn2)cc(N2CCOC(C)(C)C2)n1 [compound 710, 4-[5-(aminomethyl)pyrimidin-2-yl]-3-[6-(2,2-dimethylmorpholin-4-yl)-2-methylpyrimidin-4-yl]oxybenzonitrile]
25 | < 0.01 | Cc1nc(Oc2cc(C#N)ccc2-c2ccc(C(O)CN)cc2C)cc(N2CCOCC2)n1 (centres unmarked) [Compound 157, 4-[4-(2-amino-1-hydroxyethyl)-2-methylphenyl]-3-(2-methyl-6-morpholin-4-ylpyrimidin-4-yl)oxybenzonitrile]
26 | < 0.01 | CC(C)Cn1cc(Oc2cc(C#N)ccc2-c2ncc(CCN)cn2)c(C(F)(F)F)n1 [compound 955, 4-[5-(2-aminoethyl)pyrimidin-2-yl]-3-[1-(2-methylpropyl)-3-(trifluoromethyl)pyrazol-4-yl]oxybenzonitrile]
27 | 0.01 to 1 | Cc1nc(Oc2cc(C#N)ccc2-c2nc([C@@H](O)CN)cs2)cc(-c2ccccc2)n1 [Compound 222, 4-[4-[(1S)-2-amino-1-hydroxyethyl]-1,3-thiazol-2-yl]-3-(2-methyl-6-phenylpyrimidin-4-yl)oxybenzonitrile]
28 | 0.01 to 1 | COC(C)c1cn(Cc2cc(C#N)ccc2-c2ccc(CCN)cn2)c(C)n1 (centres unmarked) [compound 1140, 4-[5-(2-aminoethyl)pyridin-2-yl]-3-[[4-(1-methoxyethyl)-2-methylimidazol-1-yl]methyl]benzonitrile]
29 | > 1 | Cn1nc2c(c1Oc1cc(C#N)ccc1-c1ncc(CN)cn1)CCCC2 [compound 684, 4-[5-(aminomethyl)pyrimidin-2-yl]-3-[(2-methyl-4,5.6,7-tetrahydroindazol-3-yl)oxy]benzonitrile]
30 | > 1 | Cc1nc(Oc2cc(C#N)ccc2-c2ncc(CN)cn2)cc(N(C)C2COC2)n1 [compound 852, 4-[5-(aminomethyl)pyrimidin-2-yl]-3-[2-methyl-6-[methyl(oxetan-3-yl)amino]pyrimidin-4-yl]oxybenzonitrile]
31 | < 0.01 | COCCN(C)c1cc(Oc2cc(C#N)ccc2-c2ccc(CCN)cn2)cc(C)n1 [compound 459, 4-[5-(2-aminoethyl)pyridin-2-yl]-3-[2-[2-methoxyethyl(methyl)amino]-6-methylpyridin-4-yl]oxybenzonitrile]
32 | > 1 | Cc1cnc(N2CCOCC2)cc1Oc1cc(C#N)ccc1-c1ncc(CN)cn1 [compound 901, 4-[5-(aminomethyl)pyrimidin-2-yl]-3-(5-methyl-2-morpholin-4-ylpyridin-4-yl)oxybenzonitrile]

Reference: patent US20230167073A1 (Teijin Pharma Limited, priority 2020, published 2023)
